Test results: patent US20240190994A1, “FUSION PROTEIN BETWEEN ANTIGEN-BINDING MOLECULE AND STREPTAVIDIN VARIANT” (The University of Tokyo, priority 2021, published 2024)

Tests used:
[1] = system: KPL-4 xenograft (HER2-positive breast cancer); test: in vivo breast cancer tumor model experiment, tumor volume; set-up: species or system BALB/cSlc-nu/nu nude mice
Description: The KPL-4 cell line was maintained in DMEM (low glucose) (FUJIFILM Wako Pure Chemical Corporation, Osaka, Japan) supplemented with 10% FBS, 100 U/mL penicillin, and 100 μg/mL streptomycin (#15140122, Thermo Fisher Scientific, Waltham, MA, USA) (Kurebayashi J, Otsuki T, Tang CK, et al. Isolation and characterization of a new human breast cancer cell line, KPL-4, expressing the Erb B family receptors and interleukin-6. Br J Cancer. 1999; 79: 707-717. doi:10.1038/sj.bjc.6690114). The KPL-4 cells (7,500,000) were subcutaneously transplanted into the thigh of BALB/cSlc-nu/nu nude mice (Sankyo Lab Service, Inc., Tokyo, Japan). Proliferation of the subcutaneous tumor was monitored by measuring a tumor volume (0.5×length×width^2) using Vernier calipers, and the body weight of the animals was then monitored as an indicator of treatment-related toxicity.
In this study, in order to evaluate tumor recurrence, the observation period was set to be […] after the initial treatment. […] Finally, the xenograft mouse models were sacrificed at 97 days after the treatment, namely, at 19 days or more after the second treatment.
Preparation of ZHER2:342-Cupid-His and Psyche-Ax-SiPC was as previously reported (Yamatsugu K, Katoh H, Yamashita T, et al., Antibody mimetic drug conjugate manufactured by high-yield Protein Expr Purif. 2022; 192: 106043. doi:10.1016/j.pep.2021 106043). Briefly speaking, Psyche-Ax-SiPC solubilized in dimethyl sulfoxide at a concentration of 5 mM was preserved as a stock solution at −80° C. In order to prepare a complex, ZHER2:342-Cupid-His and Psyche-Ax-SiPC were mixed with each other at a molar ratio of 1:2 in a dark place on ice for 10 minutes. A concentrate of ZHER2:342-Cupid-His-Ax-SiPC was diluted using a phosphate-buffered saline.
Twenty hours after the injection, the mice in the ZHER2:342-Cupid-His-Ax-SiPC group were irradiated with a 690-nm light emitting diode light (Yamato Scientific Co., Ltd., Tokyo, Japan) at 230 J/cm^−2. Forty-eight hours after the initial light irradiation, the tumor was irradiated again in the same manner as that described above.

[2] = system: KPL-4 xenograft tumor site, skin and major organs; test: pathological analysis (H & E histology) of xenograft mouse models; assay type: in vivo, BALB/cSlc-nu/nu nude mice; conditions: 97th day
Source text: Skin samples from xenograft tumor sites, and samples from other important organs including lung, heart, kidney, liver and gastrointestinal tract, were obtained from the mice. […] Stained slides were dehydrated again by being immersed in ethanol and then being immersed in xylene. […] The H & E-stained slides were histologically examined using the OLYMPUS cellSens Standard system (OLYMPUS, Tokyo, Japan).

trastuzumab emtansine [Kadcyla]
tumor size after the first treatment ([1]; Kadcyla 300 μg/mouse, ZHER2:342-Cupid-His-Ax-SiPC 150 μg/mouse with 690-nm light, n=10, FIG. 11): a reduction in the tumor size was observed | cases with tumor volume decreased to 0 mm^3 ([1]; at 21 days after the injection, n=10): 1 case | course of tumor volume after the treatment ([1]; single administration, FIGS. 11B-D): gradually decreased | tumor size in the long term after single treatment ([1]; up to 2 months after the injection): steady decrease in the tumor size | pathological response [2]: pathological complete remission was achieved | metastatic tumors in lymph nodes or distant organs ([2]; FIG. 13 and FIG. 14): No metastatic tumors were observed | residual tumor cells in the subcutaneous region around the xenograft tumor site ([2]; n=10, FIG. 13 and FIG. 14): no residual tumor cells were observed
